Test results reported in patent publication US11959096B2, “Methods for selective inhibition of pluripotent stem cells” (THE MEDICAL COLLEGE OF WISCONSIN, INC., priority 2014, dated 2024).

Tests used:
[1] = SYTOX Green cell viability assay; format: cell-based, human; details: human, hiPSC (DF6-9-9T) cells
Procedure: (§1) In Vitro Toxicity Assays: Treatment with small molecules or glucose deprivation was initiated in hESC or hiPSC at 24 and 96 h post-plating and in vitro toxicity assays were performed at specified treatment endpoints 24-96 hours after treatment initiation. […] Neutral red assays for cell viability were performed as previously described. In vitro cell death was determined using SYTOX® Green nucleic acid stain (Life Technologies). Briefly, cells were incubated in 5 μM SYTOX® Green for 30 minutes at 37° C. in a humidified cell incubator with 5% CO2. Percent cell viability was determined by normalizing to replicate cells incubated with 120 μM digitonin (Sigma-Aldrich) and 5 μM SYTOX® Green. Imaging of cell viability was performed using Live/Dead® Viability/Cytotoxicity Kit, for mammalian cells (Life Technologies). Cells were stained for 20 minutes at room temperature with 4 μM Calcein AM to detect viable cells and 2 μM Ethidium Homodimer 1 to detect cells with compromised membranes. Representative images of alterations in cell morphology were acquired on confluent hPSC 24-72 hours after treatment initiation. Imaging was performed with a Nikon Ti-U inverted microscope.

hiPSC [2] = assay: Live/dead staining (calcein AM / ethidium homodimer-1); format: cell-based, human
Procedure: as §1

[3] = system: confluent hiPSC (DF6-9-9T); assay: Bright field imaging of cell morphology; format: cell-based, human
Procedure: as §1

H1 hESC colonies = assay: Elimination of hESC colonies grown on human fibroblast feeders (alkaline phosphatase staining, brightfield); format: cell-based
human fibroblasts = assay: Neutral red viability assay in fibroblasts; format: cell-based; details: 24 hour treatment, 100 μM
ARPE-19 = assay: Viability and morphology of retinal pigmented epithelial cells; format: cell-based
Description: Data expressed as mean+S.D. (n=4); p<0.05, **p<0.01, ***p<0.001. […] Data expressed as mean+S.D. (n=4), *p<0.05, **p<0.01, ***p<0.001.

[4] = system: DF6-9-9T hiPSC in co-culture with day 10 cardiomyocytes or human fibroblasts; assay: Colony formation assay in co-cultures of hiPSC with differentiated cells; format: cell-based; details: 5 μM
Procedure: The first iteration was adapted from previously described method, after 24 hours of treatment, hiPSC were detached with Accutase (StemCell Technologies), re-suspended in E8, passed though 12×75 mm tube with cell strainer cap (Falcon), and plated at 5e4 live cells per 2 cm^2. Media were changed every 48 hours and cells were cultured for six days, at which time staining for alkaline phosphatase was performed with leukocyte alkaline phosphatase kit (Sigma-Aldrich) as described and plates were visually inspected for phosphatase-positive colonies. This strategy represents the most common implementation of the colony formation assay. However, concerns regarding the cell death normally encountered during passaging prompted another approach for stricter assessment. In the second iteration, cells were treated for 24 hours, washed twice with 0.5 mL D-PBS, and media refreshed with E8. Thereafter, media were replaced daily for six days at which point staining for alkaline phosphatase activity was performed. […] Elimination of hiPSC from co-cultures with differentiated cells was performed with human fibroblasts and day 10 cardiomyocytes derived from hiPSC. hiPSC (DF6-9-9T) were plated at concentrations ranging from 100-10,000 live cells per well with human fibroblasts (1.75e5 cells) or day 10 differentiated cardiomyocytes (3.75e5 cells) in E8 and Y-27632 per 9.6 cm^2. […]

sub-confluent hiPSC [5] = assay: Glucose uptake assay ([3H]2-deoxyglucose); format: cell-based, human
Procedure: For 1 hour treatment, cells were placed in Krebs-Ringer Hepes (KRH) containing treatment at 37° C. in a humidified cell incubator with 5% CO2. For 15, 18, and 24 hour treatments, cells were treated in E8 medium for 14, 17, and 23 hours, respectively, at which point media was changed to KRH buffer containing specific treatment for 1 hour. After specified treatment time, glucose uptake was performed with 0.5 μCi [^3H]2-deoxyglucose for 5 min at 37° C. as previously described. Uptake data were normalized to protein concentration measured with Lowry method.

sub-confluent hiPSC [6] = assay: Immunoblot analysis of p-AMPK, AMPK, cleaved caspase-3 and -9; format: cell-based, human; details: 2.5 μM STF-31, 30 μM WZB117
Procedure: Immunoblot Analysis: Non-adherent cells were collected by centrifugation, adherent cells were washed once with d-PBS and lysed in Laemmli buffer, combined with non-adherent cell pellet, and heated at 95° C. for 5 minutes. Protein concentration was measured using the Qubit protein assay (Life Technologies). 25 μg of total protein was separated by SDS-PAGE, transferred to nitrocellulose membrane (GE Healthcare Life Sciences) and blocked according to the manufacturer's instructions. Membranes were incubated overnight at 4° C. with the following dilutions of primary antibodies: rabbit anti-cleaved caspase-3 (1:500), rabbit anti-caspase-9 (1:1000), rabbit anti-phospho-AMPK (1:1000), and rabbit anti-AMPK (1:1,000) from Cell Signaling Technology, and mouse anti-GAPDH (1:10,000) from Life Technologies. Membranes were then incubated with secondary antibodies for 45 minutes at the following concentrations: donkey anti-mouse-horseradish peroxidase (1:5,000) and donkey anti-rabbit-horseradish peroxidase (1:7,000) from Jackson Immunoresearch Laboratories, Inc., followed by detection using enhanced chemiluminescence.

hiPSC [7] = assay: Nucleotide pool measurements (HPLC); format: cell-based, human
Procedure: Nucleotide Pool Measurements: ATP, ADP, AMP, and NAD^+ were extracted using perchloric acid precipitation and analyzed using HPLC, following a previously published method. ATP, ADP, AMP and NAD^+ peaks were measured for each sample, compared with the standards, and normalized to protein levels.

[8] = system: mesenchymal stem cells, fibroblasts, retinal pigmented epithelial cells, hiPSC-derived cardiomyocytes, specified hepatic endoderm cells, neural progenitors; format: cell-based; details: 2.5 μM for 72 hours
Procedure: (C) Human iPSC-derived neural progenitors were treated with 2.5 μM for 72 hours and assessed by MTT assay (top; day 10 and day 12 progenitors) and immunofluorescence (bottom; day 12 progenitors shown).
Viability measurements were consistent with these visual observations. See data for cardiomyocytes, neural progenitors, and fibroblasts in FIGS. 8B-C). […] See Boheler et al., Stem Cell Reports 3, 185-203 (2014).

[9] = DMSO; cited from earlier work

CC(C)(C)c1ccc(S(=O)(=O)NCc2ccc(C(=O)Nc3cccnc3)cc2)cc1 [STF-31, 4-[[[[4-(1,1-Dimethylethyl)phenyl]sulfonyl]amino]methyl]-N-3-pyridinyl-benzamide]
viability at 72 h, 2.5 μM [1]: 10% | live/dead staining (hiPSC [2]; 48 hours, 2.5 μM STF-31): small patches of live cells remained | live/dead staining (hiPSC [2]; 72 hours, confluent, 2.5 μM STF-31, 30 μM WZB117, 20 μM PluriSIn): not visible | morphology of hiPSC ([3]; 2.5 μM STF-31, 24 hour incubation): did not modify the morphology | morphology of hiPSC ([3]; 2.5 μM STF-31, 48 hour treatment): patches of diminished, non-adherent cells and reduction in overall cell number | morphology of hiPSC ([3]; 72 hours, 2.5 μM STF-31, 30 μM WZB117, 20 μM PluriSIn): highly toxic | colonies by alkaline phosphatase staining (H1 hESC colonies; after 96 hours of treatment, 2.5 μM): Colonies were not detected | time at which toxicity occurs (H1 hESC colonies; hESC colonies on human fibroblast feeder cells, 2.5 μM): 48 to 72 h | colony growth after passaging (H1 hESC colonies; passaged 96 hours after treatment initiation, cultured additional 72 hours): No colony growth or alkaline phosphatase activity was detected | reduction of fibroblast viability (human fibroblasts): 30% | ARPE cell morphology or viability (ARPE-19; 2.5 μM for up to 72 hours): no adverse effects | toxicity (ARPE-19; short term treatment (24 hours), 2.5 μM): does not result in significant toxicity | cell viability (ARPE-19; treatment time extended to 72 hours, data not shown): did not result in a decrease in cell viability | elimination of hiPSC colonies from co-culture ([4]; 24-hour pulse, day 10 cardiomyocytes): elimination of a majority of hiPSC colonies | elimination of hiPSC colonies from co-culture ([4]; 48 hour pulse, day 10 cardiomyocytes or human fibroblasts): completely eliminate hiPSC | first time point with decrease in glucose uptake (sub-confluent hiPSC [5]; 2.5 μM STF-31): 18 h | decrease in glucose uptake (sub-confluent hiPSC [5]; 1 hour of treatment, 2.5 μM STF-31, 30 μM WZB117): did not alter glucose uptake | time at which cleaved caspase-3 and -9 are observed (sub-confluent hiPSC [6]): significantly later | time at which p-AMPK is detected/increased (sub-confluent hiPSC [6]; post-treatment): 24 h | time until ATP levels decrease (hiPSC [7]; 2.5 μM STF-31): 18 h | NAD+ levels (hiPSC [7]; 2.5 μM STF-31, by 3 hours): −50% | NAD+ levels (hiPSC [7]; 2.5 μM STF-31, by 18 hours): < 1% | visible changes in morphology or cell death [8]: None of these cell types exhibited visible changes in morphology or obvious cell death | solubility [9]: soluble in DMSO
